Reference: PubChem BioAssay AID2060606 (Molecular Pharmacology Branch, DTP, NCI, 2025)

Test system: 922993-354-T-J3-PDC complex spheroids, viability, % test/control
Assay: Anticancer human tumor 922993-354-T-J3-PDC patient-derived endometrial carcinoma cell line growth inhibition [CLK]
Conditions: for IC50: curve of first compound; for viability, T/C: stronger effect = lower value
Source text: A high-throughput screen of multi-cell type tumor spheroids was designed to identify active combinations of […] and targeted small molecules. Complex spheroids include a stromal component modeled by human endothelial cells (HUVEC) and fibroblasts modeled by human mesenchymal stem cells (MSCs). The concentration ranges selected for each drug and investigational agent were based upon clinically achievable concentrations if the clinical Cmax of the agent was known.
Compounds. The drugs and investigational agents: cirtuvivint (SM08502; NSC835563), CC-671 (NSC850746), vemurafenib (NSC761431), tapotoclax (NSC804041), sotorasib (NSC818433), adagrasib (NSC831453), MRTX-1133 (NSC836407), BAY2416964 (NSC825713), copanlisib (NSC816437), inavolisib (NSC800729), abemaciclib (NSC768073), osimertinib (NSC779217), entinostat (NSC756642), eltanexor (KPT-8602, NSC794443), venetoclax (NSC766270), ceralasertib (NSC777638), bortezomib (NSC756655), olaparib (NSC753686), talazoparib (NSC767125), alisertib (NSC759677), peposertib (NSC802822), gemcitabine (NSC613327), 5-fluorouracil (NSC19893), SN-38 (NSC673596), oxaliplatin (NSC266046), paclitaxel (NSC125973), and doxorubicin (NSC123127), were obtained from the National Cancer Institute (NCI) Developmental Therapeutics Program Chemical Repository. The FDA-approved anticancer drug set is available from the Developmental Therapeutics Program at https://dtp.cancer.gov/organization/dscb/obtaining/available plates.htm. […] The stock solutions were prepared in dimethyl sulfoxide (DMSO, Sigma-Aldrich, St. Louis, MO, cat. D2650), except for the platinum complexes which were prepared in saline (Quality Biological, Gaithersburg, MD, cat. 114-055-101), at 800-fold the tested concentration and stored at -70 degrees C prior to their use. All drugs and investigational agents were tested over a range starting from a high concentration at or near the clinical Cmax and decreasing in half-log increments. If the clinical Cmax for an agent had not been determined, the highest concentration tested was 10 microM.
Cell Culture. All cells were maintained in an incubator at 37 degrees C and 5% CO2 with 95% humidity. The PDC lines were cultured according to standard operating procedures established by the NCI PDMR. Briefly, all PDCs were thawed and cultured in Matrigel-coated flasks prepared with a working solution of 1X Ham's F-12 nutrient mix, without supplementation (Invitrogen, Waltham, MA, cat. 11765054), 100 U/mL penicillin-streptomycin (Invitrogen, cat. 15140122), and 2.5% Matrigel (Corning Inc., Corning, NY, cat. 354248) for the first three passages. The 947758-054-R-J2-PDC line was cultured in 6B/Colon 1A media, which includes advanced DMEM/F-12 (Thermo Fisher Scientific, cat. 12634028), 10 mM HEPES (Thermo Fisher Scientific, cat. 15630080), 1X GlutaMAX supplement (Thermo Fisher Scientific, cat. 35050061), 0.1 mg/mL primocin (InvivoGen, cat. ant-pm-2), 10% defined fetal bovine serum, heat inactivated (HyClone Laboratories Inc., cat. SH30070.03HI), 1.25 mM N-Acetyl-L-cysteine (Sigma-Aldrich, cat. A9165), 10 mM nicotinamide (Sigma-Aldrich, cat. N0636), 1X B-27 supplement (Thermo Fisher Scientific, cat. 17504044), 1X N-2 supplement (Thermo Fisher Scientific, cat. 17502048), and 10 microM Y-27632 dihydrochloride (Tocris Bioscience, cat. 1254). The 876862-298-R-J1-PDC was cultured in 6E media, which includes all 6B/Colon 1A media components plus 50% L-WRN conditioned media (ATCC, cat. CRL-3276), 50 ng/mL recombinant human EGF recombinant protein (hEGF; Thermo Fisher Scientific, cat. PHG0311), 10 ng/mL recombinant human fibroblast growth factor 10 (hGFG-10; PeproTech, cat. 100-26), 1 ng/mL recombinant human fibroblast growth factor 2 (hFGF-2; PeproTech, cat. 100-18B), and 1 µM prostaglandin E2 (PGE2; Tocris, cat. 2296). The 227483-062-R1-J1-PDC line was cultured in Panc media, containing all 6E components except hFGF-2, with the addition of 500 nM SB-431542 (Selleckchem, cat. S1067) and 10 nM gastrin (Tocris, cat. 3006). […]
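Note: spheroids exposed to the agents for 7 days before readout.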

SMILES: C=CC(=O)Nc1cc(Nc2nccc(-c3cn(C)c4ccccc34)n2)c(OC)cc1N(C)CCN(C)C + CN1CCN(c2cc(C(=O)Nc3cc4cc(-c5cnn(C)c5)ccc4cn3)ccn2)CC1
- IC50 (second compound 0.0316 µM): > 300 nM
- IC50 (second compound 0.1 µM): > 300 nM
- IC50 (second compound 0.316 µM): < 0.949 nM
- IC50 (second compound 1 µM): < 0.949 nM
- IC50 (second compound 3.16 µM): < 0.949 nM
- IC50 (second compound 10 µM): < 0.949 nM
- viability, T/C (second compound 0.0316 µM, first compound 0.000949 µM): 98.9%
- viability, T/C (second compound 0.0316 µM, first compound 0.003 µM): 98.4%
- viability, T/C (second compound 0.0316 µM, first compound 0.00949 µM): 101%
- viability, T/C (second compound 0.0316 µM, first compound 0.03 µM): 108%
- viability, T/C (second compound 0.0316 µM, first compound 0.0949 µM): 97.4%
- viability, T/C (second compound 0.0316 µM, first compound 0.3 µM): 73.1%
- viability, T/C (second compound 0.1 µM, first compound 0.000949 µM): 96.7%
- viability, T/C (second compound 0.1 µM, first compound 0.003 µM): 97.7%
- viability, T/C (second compound 0.1 µM, first compound 0.00949 µM): 83.7%
- viability, T/C (second compound 0.1 µM, first compound 0.03 µM): 69%
- viability, T/C (second compound 0.1 µM, first compound 0.0949 µM): 81%
- viability, T/C (second compound 0.1 µM, first compound 0.3 µM): 63.3%
- viability, T/C (second compound 0.316 µM, first compound 0.000949 µM): 41.8%
- viability, T/C (second compound 0.316 µM, first compound 0.003 µM): 45.5%
- viability, T/C (second compound 0.316 µM, first compound 0.00949 µM): 44.2%
- viability, T/C (second compound 0.316 µM, first compound 0.03 µM): 22.8%
- viability, T/C (second compound 0.316 µM, first compound 0.0949 µM): 31.7%
- viability, T/C (second compound 0.316 µM, first compound 0.3 µM): 27.8%
- viability, T/C (second compound 1 µM, first compound 0.000949 µM): 0.12%
- viability, T/C (second compound 1 µM, first compound 0.003 µM): 0.13%
- viability, T/C (second compound 1 µM, first compound 0.00949 µM): 1.12%
- viability, T/C (second compound 1 µM, first compound 0.03 µM): 0.1%
- viability, T/C (second compound 1 µM, first compound 0.0949 µM): 0.1%
- viability, T/C (second compound 1 µM, first compound 0.3 µM): 1.55%
- viability, T/C (second compound 3.16 µM, first compound 0.000949 µM): 0.11%
- viability, T/C (second compound 3.16 µM, first compound 0.003 µM): 0.14%
- viability, T/C (second compound 3.16 µM, first compound 0.00949 µM): 0.14%
- viability, T/C (second compound 3.16 µM, first compound 0.03 µM): 0.7%
- viability, T/C (second compound 3.16 µM, first compound 0.0949 µM): 0.13%
- viability, T/C (second compound 3.16 µM, first compound 0.3 µM): 1.62%
- viability, T/C (second compound 10 µM, first compound 0.000949 µM): 0.15%
- viability, T/C (second compound 10 µM, first compound 0.003 µM): 0.17%
- viability, T/C (second compound 10 µM, first compound 0.00949 µM): 1.16%
- viability, T/C (second compound 10 µM, first compound 0.03 µM): 0.16%
- viability, T/C (second compound 10 µM, first compound 0.0949 µM): 1.05%
- viability, T/C (second compound 10 µM, first compound 0.3 µM): 0.62%

SMILES: Nc1ccccc1NC(=O)c1ccc(CNC(=O)OCc2cccnc2)cc1 + CN1CCN(c2cc(C(=O)Nc3cc4cc(-c5cnn(C)c5)ccc4cn3)ccn2)CC1
- IC50 (second compound 0.0316 µM): > 10000 nM
- IC50 (second compound 0.1 µM): 4690 nM
- IC50 (second compound 0.316 µM): < 31.6 nM
- IC50 (second compound 1 µM): < 31.6 nM
- IC50 (second compound 3.16 µM): < 31.6 nM
- IC50 (second compound 10 µM): < 31.6 nM
- viability, T/C (second compound 0.0316 µM, first compound 0.0316 µM): 111%
- viability, T/C (second compound 0.0316 µM, first compound 0.1 µM): 114%
- viability, T/C (second compound 0.0316 µM, first compound 0.316 µM): 103%
- viability, T/C (second compound 0.0316 µM, first compound 1 µM): 90.3%
- viability, T/C (second compound 0.0316 µM, first compound 3.16 µM): 62%
- viability, T/C (second compound 0.0316 µM, first compound 10 µM): 51.9%
- viability, T/C (second compound 0.1 µM, first compound 0.0316 µM): 103%
- viability, T/C (second compound 0.1 µM, first compound 0.1 µM): 97.2%
- viability, T/C (second compound 0.1 µM, first compound 0.316 µM): 83.8%
- viability, T/C (second compound 0.1 µM, first compound 1 µM): 60.1%
- viability, T/C (second compound 0.1 µM, first compound 3.16 µM): 59.6%
- viability, T/C (second compound 0.1 µM, first compound 10 µM): 41.7%
- viability, T/C (second compound 0.316 µM, first compound 0.0316 µM): 39.8%
- viability, T/C (second compound 0.316 µM, first compound 0.1 µM): 29.3%
- viability, T/C (second compound 0.316 µM, first compound 0.316 µM): 31.7%
- viability, T/C (second compound 0.316 µM, first compound 1 µM): 33%
- viability, T/C (second compound 0.316 µM, first compound 3.16 µM): 6.16%
- viability, T/C (second compound 0.316 µM, first compound 10 µM): 1.51%
- viability, T/C (second compound 1 µM, first compound 0.0316 µM): 0.15%
- viability, T/C (second compound 1 µM, first compound 0.1 µM): 1.32%
- viability, T/C (second compound 1 µM, first compound 0.316 µM): 0.79%
- viability, T/C (second compound 1 µM, first compound 1 µM): 0.09%
- viability, T/C (second compound 1 µM, first compound 3.16 µM): 0.26%
- viability, T/C (second compound 1 µM, first compound 10 µM): 1.83%
- viability, T/C (second compound 3.16 µM, first compound 0.0316 µM): 0.61%
- viability, T/C (second compound 3.16 µM, first compound 0.1 µM): 0.12%
- viability, T/C (second compound 3.16 µM, first compound 0.316 µM): 1.29%
- viability, T/C (second compound 3.16 µM, first compound 1 µM): 0.65%
- viability, T/C (second compound 3.16 µM, first compound 3.16 µM): 1.19%
- viability, T/C (second compound 3.16 µM, first compound 10 µM): 1.23%
- viability, T/C (second compound 10 µM, first compound 0.0316 µM): 0.11%
- viability, T/C (second compound 10 µM, first compound 0.1 µM): 0.14%
- viability, T/C (second compound 10 µM, first compound 0.316 µM): 2.33%
- viability, T/C (second compound 10 µM, first compound 1 µM): 0.14%
- viability, T/C (second compound 10 µM, first compound 3.16 µM): 2.41%
- viability, T/C (second compound 10 µM, first compound 10 µM): 2.96%
